Assays:
Test in all cases: relative viability vs DMSO control (72 h) (fraction); higher = more viable cells
[1] = system: HT1080
Method in brief: (§1)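 Serially diluted compound, 2.5 µl from source plates spanning 10 mM to 0.0002 mM, was added 24 h after sarcoma cell lines were seeded in 384-well plates at densities targeting 80–90% confluence. Plates then sat 72 h at 37 °C, 5% CO2, with 0.1% DMSO vehicle and a 5 µM positive control. Relative viability came from ATPLite as percent growth, averaged over up to triplicate wells, and was rescaled with 1 as full and 0 as none.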

[2] = system: KHOS-240S
Method in brief: as §1

[3] = system: RD-ES
Method in brief: as §1

[4] = system: SW1353
Method in brief: as §1

[5] = system: SW982
Method in brief: as §1

COC(=O)c1ccc2c(c1)NC(=O)/C2=C(\Nc1ccc(N(C)C(=O)CN2CCN(C)CC2)cc1)c1ccccc1 [Nintedanib]
relative viability
Conditions | [1] | [2] | [3] | [4] | [5]
0.00017 µM | 1.05 | 1.05 | 0.955 | 0.995 | 0.999
0.00051 µM | 1.08 | 1.05 | 0.96 | 1.07 | 0.996
0.00152 µM | 1.06 | 1.04 | 0.944 | 1.02 | 1
0.00457 µM | 1.06 | 1.04 | 0.958 | 1.04 | 0.994
0.01372 µM | 1.069 | 1.04 | 0.945 | 1.02 | 0.975
0.04115 µM | 1.07 | 1.02 | 0.927 | 1.01 | 0.965
0.1235 µM | 1.06 | 0.985 | 0.806 | 1.01 | 1
0.3704 µM | 1.06 | 0.875 | 0.73 | 0.999 | 0.961
1.111 µM | 1.07 | 0.702 | 0.706 | 0.958 | 0.87
3.333 µM | 1.01 | 0.6 | 0.667 | 0.947 | 0.823
10 µM | 0.084 | 0.101 | 0.203 | 0.57 | 0.0461

COc1cc(N2CCC(N3CCN(C)CC3)CC2)ccc1Nc1ncc(Cl)c(Nc2ccccc2P(C)(C)=O)n1 [Brigatinib]
relative viability
Conditions | [1] | [2] | [3] | [4] | [5]
0.00017 µM | 1.01 | 1.04 | 0.965 | 0.909 | 1.03
0.00051 µM | 1.03 | 1.04 | 0.968 | 0.922 | 1.03
0.00152 µM | 1.02 | 1.02 | 0.955 | 0.907 | 1.03
0.00457 µM | 1.01 | 1.01 | 0.918 | 0.903 | 1.01
0.01372 µM | 1 | 0.989 | 0.873 | 0.896 | 0.954
0.04115 µM | 0.984 | 0.978 | 0.839 | 0.851 | 0.869
0.1235 µM | 1.01 | 0.92 | 0.701 | 0.824 | 0.695
0.3704 µM | 1.03 | 0.754 | 0.457 | 0.647 | 0.383
1.111 µM | 0.93 | 0.445 | 0.317 | 0.449 | 0.122
3.333 µM | 0.573 | 0.0468 | 0.165 | 0.147 | 0.00817
10 µM | 0.151 | 0.0051 | 0.0867 | 0.0131 | 0.00797

O=C(/C=C\n1cnc(-c2cc(C(F)(F)F)cc(C(F)(F)F)c2)n1)NNc1cnccn1 [Selinexor]
relative viability
Conditions | [1] | [2] | [3] | [4] | [5]
0.00017 µM | 1.11 | 1.08 | 0.988 | 1.11 | 1.06
0.00051 µM | 1.14 | 1.11 | 1.02 | 1.06 | 1.07
0.00152 µM | 1.13 | 1.08 | 0.993 | 1.12 | 1.08
0.00457 µM | 1.11 | 1.08 | 0.972 | 1.05 | 1.07
0.01372 µM | 1.082 | 1.07 | 0.949 | 1.03 | 1.08
0.04115 µM | 1.088 | 0.845 | 0.825 | 0.999 | 0.918
0.1235 µM | 0.814 | 0.511 | 0.705 | 0.883 | 0.53
0.3704 µM | 0.375 | 0.249 | 0.602 | 0.792 | 0.292
1.111 µM | 0.3301 | 0.188 | 0.5 | 0.672 | 0.211
3.333 µM | 0.2689 | 0.0642 | 0.3989 | 0.616 | 0.161
10 µM | 0.2291 | 0.0639 | 0.334 | 0.511 | 0.177

Cn1cnc2c(F)c(Nc3ccc(Br)cc3Cl)c(C(=O)NOCCO)cc21 [Selumetinib]
relative viability
Conditions | [1] | [2] | [3] | [4] | [5]
0.00017 µM | 0.96 | 1.03 | 0.958 | 0.917 | 1.01
0.00051 µM | 0.97 | 1.03 | 0.942 | 0.894 | 1.01
0.00152 µM | 0.974 | 1.01 | 0.95 | 0.918 | 1.02
0.00457 µM | 0.9799 | 0.999 | 0.985 | 0.892 | 1.01
0.01372 µM | 0.927 | 0.959 | 0.973 | 0.815 | 0.99
0.04115 µM | 0.855 | 0.949 | 0.965 | 0.782 | 0.956
0.1235 µM | 0.805 | 0.91 | 0.927 | 0.75 | 0.9336
0.3704 µM | 0.6793 | 0.8785 | 0.942 | 0.709 | 0.902
1.111 µM | 0.602 | 0.864 | 0.935 | 0.724 | 0.876
3.333 µM | 0.491 | 0.782 | 0.933 | 0.674 | 0.835
10 µM | 0.462 | 0.723 | 0.855 | 0.652 | 0.804

CS(=O)(=O)CCNCc1ccc(-c2ccc3ncnc(Nc4ccc(OCc5cccc(F)c5)c(Cl)c4)c3c2)o1 [Lapatinib]
relative viability
Conditions | [1] | [2] | [3] | [4] | [5]
0.00017 µM | 1.04 | 1.04 | 0.951 | 0.964 | 1.04
0.00051 µM | 1.035 | 1.05 | 0.948 | 0.962 | 1.04
0.00152 µM | 1.04 | 1.07 | 0.954 | 0.948 | 1.06
0.00457 µM | 1.05 | 1.06 | 0.958 | 0.954 | 1.03
0.01372 µM | 1.07 | 1.09 | 0.963 | 0.932 | 1.05
0.04115 µM | 1.04 | 1.09 | 0.964 | 0.905 | 1.06
0.1235 µM | 1.04 | 1.07 | 0.97 | 0.906 | 1.07
0.3704 µM | 1.059 | 1.09 | 0.977 | 0.85 | 1.09
1.111 µM | 1.1 | 1.08 | 0.951 | 0.863 | 1.09
3.333 µM | 1.09 | 0.65 | 0.931 | 0.847 | 0.968
10 µM | 0.674 | 0.345 | 0.909 | 0.807 | 0.0107

CCc1nc(C(N)=O)c(Nc2ccc(N3CCC(N4CCN(C)CC4)CC3)c(OC)c2)nc1NC1CCOCC1 [Gilteritinib]
relative viability
Conditions | [1] | [2] | [3] | [4] | [5]
60 pM | 1.08 | 1.08 | 0.986 | 1.04 | 0.9618
0.00018 µM | 1.032 | 1.06 | 0.961 | 1.04 | 0.996
0.00053 µM | 0.999 | 1.08 | 0.9574 | 1 | 0.978
0.0016 µM | 1.04 | 1.04 | 0.968 | 1 | 0.967
0.0048 µM | 1.07 | 1.08 | 0.963 | 0.932 | 0.988
0.014 µM | 1.05 | 1.02 | 0.938 | 0.955 | 0.947
0.043 µM | 1.05 | 0.985 | 0.88 | 0.972 | 0.945
0.13 µM | 1.05 | 0.913 | 0.687 | 0.896 | 0.612
0.389 µM | 1 | 0.848 | 0.316 | 0.779 | 0.277
1.167 µM | 0.6791 | 0.509 | 0.11 | 0.65 | 0.195
3.5 µM | 0.595 | 0.398 | 0.14 | 0.617 | 0.2

CCS(=O)(=O)N1CC(CC#N)(n2cc(-c3ncnc4[nH]ccc34)cn2)C1 [Baricitinib]
relative viability
Conditions | [1] | [2] | [3] | [4] | [5]
0.00017 µM | 1.05 | 1.035 | 0.981 | 0.952 | 0.981
0.00051 µM | 1.04 | 1.022 | 0.9701 | 0.931 | 0.983
0.00152 µM | 1.05 | 1.037 | 0.947 | 0.977 | 0.976
0.00457 µM | 1.04 | 1.04 | 0.9683 | 0.975 | 0.985
0.01372 µM | 1.05 | 1.03 | 0.951 | 0.947 | 1.0047
0.04115 µM | 1.06 | 1.019 | 0.947 | 0.961 | 0.98
0.1235 µM | 1.024 | 1.05 | 0.956 | 0.953 | 0.987
0.3704 µM | 1.04 | 1.03 | 0.9847 | 0.969 | 0.993
1.111 µM | 1.02 | 1.04 | 1.03 | 0.985 | 0.98
3.333 µM | 1.07 | 0.958 | 1.04 | 0.915 | 0.966
10 µM | 1.024 | 0.7777 | 1.04 | 0.786 | 0.748

C[C@@H]1CN(C(=O)c2ccc(NC(=O)c3cc(O[C@H](C)c4c(Cl)ccc(F)c4Cl)c(N)nn3)cc2)C[C@H](C)N1 [Ensartinib]
relative viability
Conditions | [1] | [2] | [3] | [4] | [5]
0.00017 µM | 1.02 | 0.995 | 0.97 | 0.959 | 0.966
0.00051 µM | 1 | 1.02 | 0.951 | 0.938 | 0.95947
0.00152 µM | 0.993 | 1.02 | 0.989 | 0.985 | 0.986
0.00457 µM | 1.03 | 1 | 0.963 | 0.956 | 0.973
0.01372 µM | 1.03 | 1.03 | 0.985 | 0.955 | 0.97
0.04115 µM | 0.9998 | 1.02 | 0.974 | 0.969 | 0.965
0.1235 µM | 1.04 | 1.01 | 0.975 | 0.957 | 0.982
0.3704 µM | 1.04 | 0.994 | 0.826 | 0.966 | 0.855
1.111 µM | 1.02 | 0.847 | 0.567 | 0.955 | 0.513
3.333 µM | 0.837 | 0.579 | 0.0894 | 0.77 | 0.206
10 µM | 0.0183 | 0.135 | 0.00693 | 0.0145 | 0.009967
